Blank lines part the entries; values can stand above or below the compound they belong to.
Key:
[1] = target: FGR (Homo sapiens, UniProt P09769); assay: FGR enzymatic assay; conditions: read-out: Biochemical IC50, FGR
[2] = system: CIA DBA/1 mice; assay: CIA mouse model, therapeutic dosing, with or without etanercept; type: in vivo; conditions: for Clinical score reduction at end of study: therapeutic (from day 21)
Method: Induction of CIA was performed as described previously. In brief, male DBA/1 mice (Harlan Laboratories, 8–10 weeks old) were injected subcutaneously at the base of the tail with bovine type II collagen (200 μg) admixed with reconstituted Sigma Adjuvant System (Sigma-Aldrich). The mice were boosted 21 days later in the same manner. […]
(§1) Threshold settings were optimized using histomorphometric methods.

[3] = target: CSK (Homo sapiens, UniProt P41240); assay: CSK enzymatic assay
Method: (§6) Product turnover was quantitated using a Caliper LabChip 3000 (Caliper Life Sciences, Hopkinton, MA, USA). […] [^33P]-ATP was used as a substrate at a concentration equal to KM^app, and incorporation of radiolabel into peptide or protein substrates was measured.

[4] = system: human peripheral blood mononuclear cells; assay: IC-stimulated IL-6 production in peripheral blood mononuclear cells; type: cell-based; conditions: PBMC, FcγR (immune complex)
Method: (§2) TNF-α and IL-6 levels were measured using enzyme-linked immunosorbent assay (ELISA; TNF-α OptEIA, BD Biosciences; IL-6 OptEIA, BD Biosciences). For analogous experiments measuring the effect of Toll-like receptor 4 stimulation on these endpoints, lipopolysaccharide (Sigma-Aldrich, St. Louis, MO, USA) was used as the stimulus.

[5] = target: BLK (Homo sapiens, UniProt P51451); assay: BLK enzymatic assay; conditions: read-out: Biochemical IC50, BLK; ATP at apparent KM
BLK, sequence (P51451 whole entry, species assumed): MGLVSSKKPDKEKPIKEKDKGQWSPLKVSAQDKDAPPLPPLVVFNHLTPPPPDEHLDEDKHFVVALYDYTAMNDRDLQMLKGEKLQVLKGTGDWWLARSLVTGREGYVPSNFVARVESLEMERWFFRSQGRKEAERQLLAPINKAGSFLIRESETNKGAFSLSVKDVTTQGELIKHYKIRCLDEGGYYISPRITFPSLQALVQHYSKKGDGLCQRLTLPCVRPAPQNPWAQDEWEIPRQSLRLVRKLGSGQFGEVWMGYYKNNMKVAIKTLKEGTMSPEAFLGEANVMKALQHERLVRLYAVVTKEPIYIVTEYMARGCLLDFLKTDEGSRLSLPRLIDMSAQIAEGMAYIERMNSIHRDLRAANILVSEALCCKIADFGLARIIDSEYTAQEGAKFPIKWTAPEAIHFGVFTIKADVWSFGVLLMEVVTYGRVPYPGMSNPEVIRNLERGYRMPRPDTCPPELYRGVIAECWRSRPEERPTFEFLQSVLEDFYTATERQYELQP
Method: as §6

[6] = target: Lck (Homo sapiens, UniProt P06239); assay: Lck enzymatic assay; conditions: read-out: Biochemical IC50, Lck
[7] = system: CAIA BALB/c mice; assay: Collagen antibody-induced arthritis (CAIA) mouse model; type: in vivo
Method: Three days later, mice were injected IP with 1.25 mg/kg LPS from Escherichia coli O111:B4 (Sigma-Aldrich). Mice were monitored daily for development and severity of paw inflammation as described previously [24].

[8] = target: Txk (Homo sapiens, UniProt P42681); assay: Txk enzymatic assay; conditions: ATP at apparent KM; read-out: Biochemical IC50, Txk
Method: as §6

[9] = system: human peripheral blood mononuclear cells; assay: LPS (TLR4)-stimulated TNF-α in peripheral blood mononuclear cells; type: cell-based; conditions: PBMC
Method: as §2

[10] = system: human peripheral blood mononuclear cells; assay: IC-stimulated TNF-α production in peripheral blood mononuclear cells; type: cell-based; conditions: PBMC, FcγR (immune complex)
Method: as §2

[11] = system: CD27+CD20+ memory B cells (peripheral blood); assay: BCR-stimulated CD86 expression on memory B cells; type: cell-based; conditions: Homo sapiens, B-cell, BCR (anti-IgM)
Description: (§3) The cells were stained with fluorescein isothiocyanate (FITC)-conjugated mouse anti-human CD20 antibody (BD Pharmingen, San Diego, CA, USA) and either allophycocyanin (APC)-conjugated mouse anti-human CD86 monoclonal antibody (BD Pharmingen) or phycoerythrin (PE)-conjugated mouse anti-human CD69 monoclonal antibody (BD Pharmingen). The amount of CD86 or CD69 expression was quantitated by median fluorescence intensity (MFI) after gating on the CD20-positive B-cell population using fluorescence-activated cell sorting (FACS) analysis. For analogous experiments measuring the effect of CD40 or Toll-like receptor 4 (TLR4) stimulation on these endpoints, either human IZ-CD40L or lipopolysaccharide (LPS) was used to stimulate the cells.

[12] = system: human tonsillar B cells; assay: BCR-stimulated IL-6 from human tonsillar B cells; type: cell-based; conditions: B-cell, BCR (anti-IgM)
Method: (§4) After 1 hour of incubation at 37°C, the cells were stimulated with 40 μg/mL AffiniPure F(ab’)2 fragment goat anti-human IgM (Jackson ImmunoResearch) and 10 ng/mL IL-4 (Peprotech). After an additional 4.5 hours of incubation, the supernatants were collected and the levels of IL-6 and TNF-α were measured using an enzyme immunoassay.

[13] = target: ITK (Homo sapiens, UniProt Q08881); assay: ITK enzymatic assay; conditions: ATP at apparent KM; read-out: Biochemical IC50, ITK
ITK, sequence (Q08881 whole entry, species assumed): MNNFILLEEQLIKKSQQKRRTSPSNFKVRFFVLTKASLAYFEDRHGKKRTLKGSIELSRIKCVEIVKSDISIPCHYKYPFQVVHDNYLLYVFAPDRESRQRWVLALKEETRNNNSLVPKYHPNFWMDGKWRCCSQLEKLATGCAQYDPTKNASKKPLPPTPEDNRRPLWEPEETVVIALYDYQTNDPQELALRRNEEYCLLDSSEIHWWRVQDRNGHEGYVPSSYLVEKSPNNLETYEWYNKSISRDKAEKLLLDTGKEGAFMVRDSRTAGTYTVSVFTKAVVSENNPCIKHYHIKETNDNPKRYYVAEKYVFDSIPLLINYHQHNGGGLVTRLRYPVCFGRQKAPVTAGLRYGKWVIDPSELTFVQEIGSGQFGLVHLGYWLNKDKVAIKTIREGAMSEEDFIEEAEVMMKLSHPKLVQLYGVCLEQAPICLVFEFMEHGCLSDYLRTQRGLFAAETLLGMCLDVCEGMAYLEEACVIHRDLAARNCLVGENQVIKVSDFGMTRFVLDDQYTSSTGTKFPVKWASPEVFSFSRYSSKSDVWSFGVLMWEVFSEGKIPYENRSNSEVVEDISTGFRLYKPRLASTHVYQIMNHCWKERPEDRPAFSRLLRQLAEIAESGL
Description: (§7) Product turnover was quantitated using a Caliper LabChip 3000 (Caliper Life Sciences, Hopkinton, MA, USA). Similar assays were used for other kinases (Tec kinase, interleukin [IL]-2-inducible T-cell kinase, B-lymphocyte kinase, T cell-expressed kinase, and bone marrow-expressed kinase), with ATP concentrations equal to the apparent Michaelis constant (KM^app) for each kinase. […] [^33P]-ATP was used as a substrate at a concentration equal to KM^app, and incorporation of radiolabel into peptide or protein substrates was measured.

[14] = target: Src (Homo sapiens, UniProt P12931); assay: Src enzymatic assay
Src, sequence (P12931 whole entry, species assumed): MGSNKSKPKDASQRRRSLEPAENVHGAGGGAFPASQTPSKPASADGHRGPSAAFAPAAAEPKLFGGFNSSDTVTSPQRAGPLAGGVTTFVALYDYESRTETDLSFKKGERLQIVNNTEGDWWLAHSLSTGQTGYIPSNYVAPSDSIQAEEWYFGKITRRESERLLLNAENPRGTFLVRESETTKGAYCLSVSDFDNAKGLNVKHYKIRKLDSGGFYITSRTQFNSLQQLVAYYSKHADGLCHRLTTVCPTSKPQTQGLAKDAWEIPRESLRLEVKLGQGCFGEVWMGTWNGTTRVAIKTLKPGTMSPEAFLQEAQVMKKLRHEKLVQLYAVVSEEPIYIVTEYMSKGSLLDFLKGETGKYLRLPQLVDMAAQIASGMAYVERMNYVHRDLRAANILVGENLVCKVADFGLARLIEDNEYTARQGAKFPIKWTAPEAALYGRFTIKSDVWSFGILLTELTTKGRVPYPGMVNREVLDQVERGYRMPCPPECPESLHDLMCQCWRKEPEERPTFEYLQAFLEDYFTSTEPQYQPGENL
Description: as §7

[15] = system: human peripheral blood B cells; assay: CD40L-induced CD69 expression on peripheral blood B cells; type: cell-based; conditions: B-cell, CD40 (CD40L)
Description: as §3

[16] = system: CIA DBA/1 mice; assay: CIA mouse model, preventative dosing, with or without murine CTLA-4-Ig; type: in vivo; conditions: BMS-986142 10 mg/kg PO QD
Method: (§5) Induction of CIA was performed as described previously. In brief, male DBA/1 mice (Harlan Laboratories, 8–10 weeks old) were injected subcutaneously at the base of the tail with bovine type II collagen (200 μg) admixed with reconstituted Sigma Adjuvant System (Sigma-Aldrich). The mice were boosted 21 days later in the same manner. […] Dosing proceeded from day 0 through study completion (36 days).
as §1

[17] = system: Ramos B cells; assay: BCR-stimulated PLCγ2 phosphorylation in Ramos B cells; type: cell-based; conditions: Homo sapiens, anti-IgM, read-out: IC50, BTK-catalyzed phosphorylation of PLCγ2
Method: The cells were pelleted and lysed, and PLCγ2 levels were measured by immunoblot using rabbit anti-human phosphoY759-PLCγ2 (Cell Signaling Technology, Danvers, MA, USA) and analyzed using the Odyssey Infrared Imaging System (Li-Cor Biosciences, Lincoln, NE, USA) with normalization to an actin control to ensure consistent loading.

[18] = target: Human recombinant BTK (Homo sapiens, UniProt Q06187); assay: Human recombinant BTK enzymatic assay (Caliper LabChip); conditions: 20 μM ATP, read-out: Biochemical IC50, BTK
Human recombinant BTK, sequence (Q06187 whole entry): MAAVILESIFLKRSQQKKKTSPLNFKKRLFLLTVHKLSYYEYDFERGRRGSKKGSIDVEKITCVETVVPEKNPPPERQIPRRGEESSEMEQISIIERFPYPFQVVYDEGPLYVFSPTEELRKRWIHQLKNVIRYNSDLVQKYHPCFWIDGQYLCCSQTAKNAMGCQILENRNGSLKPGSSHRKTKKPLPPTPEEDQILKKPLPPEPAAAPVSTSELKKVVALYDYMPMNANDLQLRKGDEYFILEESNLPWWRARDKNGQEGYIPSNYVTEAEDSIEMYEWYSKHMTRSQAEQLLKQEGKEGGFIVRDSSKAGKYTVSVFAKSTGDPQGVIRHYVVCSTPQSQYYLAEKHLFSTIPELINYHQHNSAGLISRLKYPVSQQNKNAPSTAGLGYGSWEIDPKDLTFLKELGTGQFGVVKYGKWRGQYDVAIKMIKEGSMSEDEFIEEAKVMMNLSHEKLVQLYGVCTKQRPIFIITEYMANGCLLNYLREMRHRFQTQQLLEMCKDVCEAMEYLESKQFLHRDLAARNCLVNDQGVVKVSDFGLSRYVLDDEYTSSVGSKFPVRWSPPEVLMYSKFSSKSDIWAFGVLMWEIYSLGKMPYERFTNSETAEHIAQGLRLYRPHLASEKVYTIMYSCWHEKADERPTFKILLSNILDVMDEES
Description: as §7

[19] = system: basophils in human whole blood; assay: Human whole blood FcεRI (anti-IgE)-stimulated CD63 expression on basophils; type: cell-based; conditions: read-out: IC50, FcεRI-driven CD63 surface expression on basophils
Method: The blood was lysed and fixed, then washed. The percentage of CD63+ cells was measured after gating on the CCR3-positive basophil population by FACS analysis.
The blood was lysed, fixed, and then washed. The percentage of CD63+ cells was measured after gating on the C-C chemokine receptor type 3-positive basophil population by FACS analysis.

[20] = system: B cells in human whole blood; assay: Human whole blood BCR-stimulated CD69 expression on B cells; type: cell-based; conditions: B-cell
Description: The cells were stained with FITC-conjugated mouse anti-human CD20 (BD Pharmingen) and PE-conjugated mouse anti-human CD69 monoclonal antibody (BD Pharmingen), lysed and fixed, then washed. The amount of CD69 expression was quantitated by MFI after gating on the CD20-positive B-cell population as measured by FACS analysis.
The cells were stained with fluorescein isothiocyanate (FITC)-conjugated mouse anti-human CD20 (BD Pharmingen, San Diego, CA, USA) and phycoerythrin (PE)-conjugated mouse anti-human CD69 monoclonal antibody (BD Pharmingen), lysed, fixed, and then washed. The amount of CD69 expression was quantitated by MFI after gating on the CD20-positive B-cell population measured by FACS analysis.

[21] = target: IGF1R (Homo sapiens, UniProt P08069); assay: IGF1R enzymatic assay; conditions: read-out: Biochemical IC50, IGF1R
IGF1R, sequence (P08069 31-1367, species assumed): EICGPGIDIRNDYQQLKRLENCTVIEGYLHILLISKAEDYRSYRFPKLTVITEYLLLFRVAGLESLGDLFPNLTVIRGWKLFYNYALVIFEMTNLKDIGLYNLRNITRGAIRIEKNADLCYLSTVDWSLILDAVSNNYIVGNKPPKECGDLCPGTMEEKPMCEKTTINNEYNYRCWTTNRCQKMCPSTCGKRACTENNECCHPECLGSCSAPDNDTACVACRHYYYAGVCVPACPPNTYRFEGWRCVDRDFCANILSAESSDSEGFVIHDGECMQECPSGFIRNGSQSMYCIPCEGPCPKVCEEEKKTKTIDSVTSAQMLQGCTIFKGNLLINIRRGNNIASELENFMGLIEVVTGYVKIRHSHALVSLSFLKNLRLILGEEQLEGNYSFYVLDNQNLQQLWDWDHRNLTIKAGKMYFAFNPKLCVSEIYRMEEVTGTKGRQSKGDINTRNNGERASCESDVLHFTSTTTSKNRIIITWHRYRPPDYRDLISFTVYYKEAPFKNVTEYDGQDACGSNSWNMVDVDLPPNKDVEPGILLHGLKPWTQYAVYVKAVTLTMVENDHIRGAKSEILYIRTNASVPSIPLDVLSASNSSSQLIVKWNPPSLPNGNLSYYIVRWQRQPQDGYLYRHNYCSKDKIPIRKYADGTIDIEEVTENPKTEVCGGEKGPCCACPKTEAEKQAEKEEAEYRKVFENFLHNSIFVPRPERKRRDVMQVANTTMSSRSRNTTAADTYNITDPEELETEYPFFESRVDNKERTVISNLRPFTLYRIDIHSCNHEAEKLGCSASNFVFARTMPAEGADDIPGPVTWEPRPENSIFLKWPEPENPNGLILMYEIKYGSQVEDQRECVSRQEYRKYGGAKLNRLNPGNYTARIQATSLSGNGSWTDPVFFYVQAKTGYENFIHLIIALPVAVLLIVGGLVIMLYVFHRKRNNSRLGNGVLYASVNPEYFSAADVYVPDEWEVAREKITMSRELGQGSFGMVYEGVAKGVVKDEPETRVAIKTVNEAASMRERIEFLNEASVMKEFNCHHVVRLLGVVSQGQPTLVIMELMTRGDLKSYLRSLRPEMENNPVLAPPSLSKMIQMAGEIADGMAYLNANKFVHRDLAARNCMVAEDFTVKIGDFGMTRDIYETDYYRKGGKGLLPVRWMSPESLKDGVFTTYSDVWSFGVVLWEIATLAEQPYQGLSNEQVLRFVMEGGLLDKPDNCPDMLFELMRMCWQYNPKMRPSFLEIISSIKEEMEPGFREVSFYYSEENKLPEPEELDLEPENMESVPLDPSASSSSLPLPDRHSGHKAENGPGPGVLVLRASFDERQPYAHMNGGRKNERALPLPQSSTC
Description: as §7

[22] = target: Tec (Homo sapiens, UniProt P42680); assay: Tec kinase enzymatic assay; conditions: ATP at apparent KM; read-out: Biochemical IC50, Tec
Description: as §7

[23] = target: BMX (Homo sapiens, UniProt P51813); assay: BMX enzymatic assay; conditions: read-out: Biochemical IC50, BMX; ATP at apparent KM
BMX, sequence (P51813 whole entry, species assumed): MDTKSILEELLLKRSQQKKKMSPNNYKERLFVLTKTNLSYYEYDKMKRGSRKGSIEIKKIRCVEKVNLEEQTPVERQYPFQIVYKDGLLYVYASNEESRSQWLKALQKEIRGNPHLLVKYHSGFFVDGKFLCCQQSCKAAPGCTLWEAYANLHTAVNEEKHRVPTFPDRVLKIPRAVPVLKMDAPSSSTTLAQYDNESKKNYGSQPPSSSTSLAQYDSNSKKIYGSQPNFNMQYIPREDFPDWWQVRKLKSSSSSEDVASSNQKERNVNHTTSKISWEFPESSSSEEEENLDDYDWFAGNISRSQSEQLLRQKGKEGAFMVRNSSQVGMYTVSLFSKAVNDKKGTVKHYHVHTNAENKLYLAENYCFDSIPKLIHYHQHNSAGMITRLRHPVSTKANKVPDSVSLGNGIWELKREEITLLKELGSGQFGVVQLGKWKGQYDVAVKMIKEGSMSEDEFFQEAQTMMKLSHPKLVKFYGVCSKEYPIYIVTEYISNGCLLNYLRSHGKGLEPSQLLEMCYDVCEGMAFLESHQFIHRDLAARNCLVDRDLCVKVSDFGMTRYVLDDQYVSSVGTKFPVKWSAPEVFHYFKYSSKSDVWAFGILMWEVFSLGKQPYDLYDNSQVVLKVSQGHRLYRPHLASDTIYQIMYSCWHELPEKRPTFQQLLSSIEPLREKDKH
Method: as §6

[24] = system: human peripheral blood B cells; assay: CD40L-induced CD86 expression on peripheral blood B cells; type: cell-based; conditions: B-cell, CD40 (CD40L)
Description: as §3

[25] = system: Ramos B cells; assay: BCR-stimulated calcium flux in Ramos B cells; type: cell-based; conditions: Homo sapiens, BCR (anti-IgM), read-out: IC50, Ca2+ flux
Method: BCR-stimulated calcium flux in Ramos B cells: Human Ramos (RA1) B cells, a Burkitt’s lymphoma cell line (ATCC, CRL-1596), pre-loaded with calcium indicator dye (BD Biosciences, San Jose, CA, USA) in media containing 10% FBS, were plated on black clear-bottom assay plates at a density of 1 × 10^6 cells/mL (150,000 cells per well).

[26] = system: CIA DBA/1 mice; assay: Collagen-induced arthritis (CIA) mouse model, preventative dosing, with or without MTX; type: in vivo
Method: as §5, §1

[27] = system: KLH-immunized BALB/c mice; assay: Primary anti-KLH antibody responses in mice; type: in vivo, mouse
Method: Activity against a KLH-induced antibody response in mice was used as a measure of antigen-driven B-cell responses. Female BALB/c mice (8–12 weeks old) were immunized intraperitoneally (IP) with 250 μg of KLH (Pierce, Rockford, IL, USA) in phosphate-buffered saline on day 0. […] Captured anti-KLH antibodies were detected using horseradish peroxidase-conjugated antibody specific for mouse IgM or IgG (Southern Biotechnology Associates, Birmingham, AL, USA) and the 3,3′,5,5′-tetramethylbenzidine peroxidase substrate system (Kirkegaard and Perry Laboratories, Gaithersburg, MD, USA). Optical densities of developed plates were quantitated in a SpectraMax Plus ELISA plate reader (Molecular Devices, Sunnyvale, CA, USA). Sera collected from mice on day 7 or day 14 after immunization with KLH were pooled and used as a standard comparator.

[28] = system: human tonsillar B cells; assay: BCR-stimulated TNF-α from human tonsillar B cells; type: cell-based; conditions: B-cell, BCR (anti-IgM)
Method: as §4

[29] = system: B cells in mouse whole blood; assay: Mouse whole blood BCR-stimulated CD69 expression on B cells; type: cell-based
Method: For mouse whole blood, stimulation used AffiniPure F(ab’)2 fragment goat anti-mouse IgG + IgM (Jackson ImmunoResearch) at 200 μg/mL and 1 ng/mL mouse IL-4 (R&D Systems, Minneapolis, MN, USA) for 5 hours at 37°C with agitation. After staining with APC rat anti-mouse CD19 antibody (BD Biosciences) to identify the B cells, the amount of CD69 expression was quantitated by FACS using FITC-conjugated anti-mouse CD69 monoclonal antibody (BD Biosciences).

[30] = system: human peripheral blood B cells; assay: BCR-stimulated CD86 expression on human peripheral blood B cells; type: cell-based; conditions: B-cell, BCR (anti-IgM)
Description: as §3

[31] = system: human B cells; assay: Antigen receptor-dependent signaling and functional endpoints in human B cells (summary); type: cell-based; conditions: read-out: IC50, antigen receptor-dependent signaling and functional endpoints (cytokine production, co-stimulatory molecule expression, proliferation)
[32] = system: human tonsillar B cells; assay: cells; conditions: B-cell, read-out: IC50, Proliferation
Method: The cells were then labeled with [^3H]-thymidine and incubated overnight at 37°C. Cells were then harvested onto filter plates and the amount of [^3H]-thymidine incorporation, as a measure of B-cell proliferation, was determined using liquid scintillation counting.

[33] = system: human monocytic osteoclast precursor cells; assay: RANK-L-induced osteoclastogenesis; type: cell-based; conditions: TRAP-positive multinucleated cells, 9 days in culture
Method: After 9 days in culture, cells were fixed and stained for tartrate-resistant acid phosphatase (TRAP; Sigma-Aldrich, St. Louis, MO, USA), and the number of TRAP-positive multinucleated cells (>2 nuclei per cell) was measured as described previously.

FGR, sequence (P09769 whole entry, species assumed): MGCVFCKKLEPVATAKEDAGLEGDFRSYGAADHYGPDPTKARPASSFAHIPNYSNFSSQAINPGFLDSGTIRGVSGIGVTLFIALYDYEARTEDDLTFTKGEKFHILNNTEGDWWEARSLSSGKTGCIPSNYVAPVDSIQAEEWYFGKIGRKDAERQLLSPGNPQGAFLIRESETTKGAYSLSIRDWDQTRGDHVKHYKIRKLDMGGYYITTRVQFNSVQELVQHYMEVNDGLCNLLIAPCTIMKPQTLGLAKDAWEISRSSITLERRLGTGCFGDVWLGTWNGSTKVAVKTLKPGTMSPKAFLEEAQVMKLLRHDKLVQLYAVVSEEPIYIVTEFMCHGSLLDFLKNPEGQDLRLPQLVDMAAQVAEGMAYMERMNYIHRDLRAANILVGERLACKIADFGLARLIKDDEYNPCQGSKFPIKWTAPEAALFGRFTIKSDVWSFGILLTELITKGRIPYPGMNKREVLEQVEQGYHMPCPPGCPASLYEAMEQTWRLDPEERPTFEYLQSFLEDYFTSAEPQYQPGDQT

IC50 [1]: 81 nM | IC50 [3]: 148 nM | IC50 [4]: 4 ± 3 nM | IC50 [5]: 23 nM | IC50 [6]: 71 nM | IC50 [8]: 28 nM | IC50 [9]: > 30 µM | IC50 [10]: 3 ± 3 nM | IC50 [11]: 3 ± 3 nM | IC50 [12]: 5 ± 3 nM | IC50 [13]: 15 nM | IC50 [14]: 1110 nM | IC50 [15]: > 10 µM | IC50 [17]: ~20 nM | IC50 [18]: 0.5 nM | IC50 [19]: 89 nM | IC50 [20]: 90 nM | IC50 [21]: 247 nM | IC50 [22]: 10 nM | IC50 [23]: 32 nM | IC50 [24]: > 10 µM | IC50 [25]: 9 ± 5 nM | IC50 [28]: 3 ± 3 nM | IC50 [29]: 140 nM | IC50 [30]: 4 ± 3 nM
Structure (SMILES): Cc1c(-c2c(F)cc(C(N)=O)c3[nH]c4c(c23)CC[C@H](C(C)(C)O)C4)cccc1-n1c(=O)c2cccc(F)c2n(C)c1=O [BMS-986142, 6-fluoro-5-(R)-(3-(S)-(8-fluoro-1-methyl-2,4-dioxo-1,2-dihydroquinazolin-3(4H)-yl)-2-methylphenyl)-2-(S)-(2-hydroxypropan-2-yl)-2,3,4,9-tetrahydro-1H-carbazole-8-carboxamide]
Clinical score reduction at end of study ([2]; 2 mg/kg): 17% | Clinical score reduction at end of study ([2]; 4 mg/kg): 37% | Clinical score reduction at end of study ([2]; 25 mg/kg): 67% | Disease-induced remodeling/erosions and loss of bone mass compared with vehicle (micro-CT) ([2]; therapeutic, 2, 4 and 25 mg/kg): dose-dependent protection | Reduction of clinical scores at study end ([7]; 5 mg/kg, prophylactic): 72% | Inhibition of clinical scores at study end ([7]; 20 mg/kg, prophylactic): > 90% | Histological bone resorption and inflammation scores of hind paws ([7]; 5 and 20 mg/kg): effective at reducing bone resorption as well as inflammation scores | Reduction of clinical scores [16]: 46% | Disease-associated increase in splenic CD138+B220low plasma cells [26]: inhibited | Effect on B cell numbers [26]: did not deplete B cells | Expression of CD38 on plasma cells induced by disease [26]: inhibited | Reduction in clinically evident disease at end of study ([26]; 4 mg/kg PO QD): 26% | Reduction in clinically evident disease at end of study ([26]; 10 mg/kg PO QD): 43% | Reduction in clinically evident disease at end of study ([26]; 30 mg/kg PO QD): 79% | Serum anti-collagen II IgG titers ([26]; 10 and 30 mg/kg): significantly inhibited | Reduction in inflammation and bone resorption (histology) ([26]; BMS-986142 4 mg/kg alone): 24% | Inhibition of anti-KLH IgM response ([27]; 30 mg/kg PO QD, day 7): 77% | Inhibition of anti-KLH IgG response ([27]; 30 mg/kg PO QD, day 14): 87% | Anti-KLH IgM and IgG antibody responses versus vehicle ([27]; 10 and 30 mg/kg PO QD): Significant reductions | IC50 [31]: ≤ 5 nM | IC50 [32]: 3 ± 1 nM | Lowest concentration at which inhibition of RANK-L-induced osteoclastogenesis was evident [33]: 15 nM

Structure (SMILES): CN(Cc1cnc2nc(N)nc(N)c2n1)c1ccc(C(=O)N[C@@H](CCC(=O)O)C(=O)O)cc1 [MTX, methotrexate, reference compound]
Reduction in inflammation and bone resorption (histology) ([26]; MTX alone): 10%
